Columns and labels:
Assay in all cases: Cysteine liganding, probe competition
Assay type in all cases: binding
UniProt Q86UD3 = target: T1, UniProt Q86UD3 (Homo sapiens, UniProt Q86UD3)
T1 construct: Cells were resuspended in cold PBS on ice and sonicated with a probe sonicator to achieve lysis; endogenous in cells
T1 sequence (Q86UD3 1-253): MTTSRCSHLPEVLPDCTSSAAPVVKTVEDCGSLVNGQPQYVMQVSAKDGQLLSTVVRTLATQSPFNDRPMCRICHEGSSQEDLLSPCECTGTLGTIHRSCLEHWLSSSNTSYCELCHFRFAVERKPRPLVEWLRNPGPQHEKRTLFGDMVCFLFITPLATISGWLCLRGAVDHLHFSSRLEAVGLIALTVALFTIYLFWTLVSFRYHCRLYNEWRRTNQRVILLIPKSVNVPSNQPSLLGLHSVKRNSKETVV
Excerpt: (§1) The following 96-well sample prep protocol was used for sample preparation.

UniProt Q7Z6J0 = target: T2, UniProt Q7Z6J0 (Homo sapiens, UniProt Q7Z6J0); conditions: for inhibition at 100 µM: read-out: percent_inhibition
T2 construct: 200 μL of lysate containing 5 mg/ml proteome was treated with 2 μL of 100× compound stock; endogenous in cells
T2 sequence (Q7Z6J0 1-888): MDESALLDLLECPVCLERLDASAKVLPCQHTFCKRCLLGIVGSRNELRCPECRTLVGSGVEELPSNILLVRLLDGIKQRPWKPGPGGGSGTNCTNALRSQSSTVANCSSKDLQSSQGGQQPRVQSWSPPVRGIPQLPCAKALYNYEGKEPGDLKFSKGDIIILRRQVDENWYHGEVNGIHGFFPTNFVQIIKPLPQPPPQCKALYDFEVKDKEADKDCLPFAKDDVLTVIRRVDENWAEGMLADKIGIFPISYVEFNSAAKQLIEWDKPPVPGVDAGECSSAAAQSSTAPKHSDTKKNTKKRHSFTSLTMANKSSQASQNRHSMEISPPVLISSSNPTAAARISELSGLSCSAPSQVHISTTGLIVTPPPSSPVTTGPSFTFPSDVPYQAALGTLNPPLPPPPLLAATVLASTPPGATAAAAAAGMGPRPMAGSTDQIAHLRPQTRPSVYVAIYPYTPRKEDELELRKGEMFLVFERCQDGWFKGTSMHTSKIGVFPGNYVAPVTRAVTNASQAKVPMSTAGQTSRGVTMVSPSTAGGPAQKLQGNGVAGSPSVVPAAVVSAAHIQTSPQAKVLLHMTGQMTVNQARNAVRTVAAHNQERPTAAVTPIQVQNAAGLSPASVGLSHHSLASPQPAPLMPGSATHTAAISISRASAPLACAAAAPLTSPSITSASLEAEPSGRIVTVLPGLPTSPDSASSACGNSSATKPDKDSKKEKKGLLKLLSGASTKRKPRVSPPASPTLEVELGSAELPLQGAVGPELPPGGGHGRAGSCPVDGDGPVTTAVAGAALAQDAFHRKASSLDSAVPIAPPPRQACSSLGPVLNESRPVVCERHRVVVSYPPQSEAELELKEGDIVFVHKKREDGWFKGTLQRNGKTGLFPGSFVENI
Excerpt: as §1

UniProt Q9NX47 = target: T3, UniProt Q9NX47 (Homo sapiens, UniProt Q9NX47)
T3 construct: Cells were resuspended in cold PBS on ice and sonicated with a probe sonicator to achieve lysis; endogenous in cells
Excerpt: as §1

UniProt P46934 = target: T4, UniProt P46934 (Homo sapiens, UniProt P46934)
T4 construct: Cells were resuspended in cold PBS on ice and sonicated with a probe sonicator to achieve lysis; endogenous in cells
T4 sequence (P46934 1-1319): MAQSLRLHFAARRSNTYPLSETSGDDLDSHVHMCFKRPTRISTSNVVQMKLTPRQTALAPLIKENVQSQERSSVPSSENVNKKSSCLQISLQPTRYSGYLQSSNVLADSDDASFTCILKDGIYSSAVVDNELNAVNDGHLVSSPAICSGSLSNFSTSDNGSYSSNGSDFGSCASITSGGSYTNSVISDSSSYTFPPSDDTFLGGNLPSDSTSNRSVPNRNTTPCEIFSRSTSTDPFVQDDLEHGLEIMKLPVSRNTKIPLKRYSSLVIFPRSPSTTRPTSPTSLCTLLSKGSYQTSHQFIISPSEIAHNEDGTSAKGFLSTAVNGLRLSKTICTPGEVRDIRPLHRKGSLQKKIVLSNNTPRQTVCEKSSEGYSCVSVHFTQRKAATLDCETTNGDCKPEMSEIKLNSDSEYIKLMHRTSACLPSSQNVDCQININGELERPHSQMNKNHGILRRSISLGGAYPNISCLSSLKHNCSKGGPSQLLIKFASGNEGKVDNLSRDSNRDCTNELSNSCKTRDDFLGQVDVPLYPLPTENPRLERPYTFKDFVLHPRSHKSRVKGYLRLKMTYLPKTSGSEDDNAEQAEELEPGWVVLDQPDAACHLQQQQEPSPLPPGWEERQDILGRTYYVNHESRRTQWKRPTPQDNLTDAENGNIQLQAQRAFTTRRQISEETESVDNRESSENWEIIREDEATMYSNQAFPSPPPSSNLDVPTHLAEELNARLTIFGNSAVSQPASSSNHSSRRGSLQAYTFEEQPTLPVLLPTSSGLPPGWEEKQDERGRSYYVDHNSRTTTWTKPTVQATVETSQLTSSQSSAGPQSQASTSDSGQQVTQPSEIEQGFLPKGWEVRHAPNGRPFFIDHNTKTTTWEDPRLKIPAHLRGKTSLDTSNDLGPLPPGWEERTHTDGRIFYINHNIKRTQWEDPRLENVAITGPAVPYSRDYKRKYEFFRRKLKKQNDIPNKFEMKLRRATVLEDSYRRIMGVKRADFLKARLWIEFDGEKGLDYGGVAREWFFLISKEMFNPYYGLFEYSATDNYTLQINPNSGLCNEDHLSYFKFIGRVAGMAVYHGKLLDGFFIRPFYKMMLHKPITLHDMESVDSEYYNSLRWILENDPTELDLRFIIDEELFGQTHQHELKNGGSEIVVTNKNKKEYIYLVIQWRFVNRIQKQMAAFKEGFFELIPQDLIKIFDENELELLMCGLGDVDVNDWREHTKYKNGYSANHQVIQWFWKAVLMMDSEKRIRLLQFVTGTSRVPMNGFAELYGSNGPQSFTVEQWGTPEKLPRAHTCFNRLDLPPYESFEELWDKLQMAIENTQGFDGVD
Excerpt: as §1

UniProt O94972 = target: T5, UniProt O94972 (Homo sapiens, UniProt O94972)
T5 construct: 200 μL of lysate containing 5 mg/ml proteome was treated with 2 μL of 100× compound stock; endogenous in cells
Excerpt: as §1

UniProt Q12899 = target: T6, UniProt Q12899 (Homo sapiens, UniProt Q12899)
T6 construct: 200 μL of lysate containing 5 mg/ml proteome was treated with 2 μL of 100× compound stock; endogenous in cells
Excerpt: as §1

[1] = 100 uM, read-out: percent inhibition
[2] = 500 uM, read-out: percent inhibition
[3] = read-out: KB05_100 uM_percent_inhibition

T3 sequence (Q9NX47 whole entry, change not shown): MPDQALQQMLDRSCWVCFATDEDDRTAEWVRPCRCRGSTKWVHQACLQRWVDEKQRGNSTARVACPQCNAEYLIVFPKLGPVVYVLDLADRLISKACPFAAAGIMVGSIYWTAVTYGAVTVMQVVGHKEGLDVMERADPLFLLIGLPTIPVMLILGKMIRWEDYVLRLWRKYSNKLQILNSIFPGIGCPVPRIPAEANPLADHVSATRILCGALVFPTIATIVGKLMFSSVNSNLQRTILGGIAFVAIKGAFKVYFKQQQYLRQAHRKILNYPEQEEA
T5 sequence (O94972 whole entry, change not shown): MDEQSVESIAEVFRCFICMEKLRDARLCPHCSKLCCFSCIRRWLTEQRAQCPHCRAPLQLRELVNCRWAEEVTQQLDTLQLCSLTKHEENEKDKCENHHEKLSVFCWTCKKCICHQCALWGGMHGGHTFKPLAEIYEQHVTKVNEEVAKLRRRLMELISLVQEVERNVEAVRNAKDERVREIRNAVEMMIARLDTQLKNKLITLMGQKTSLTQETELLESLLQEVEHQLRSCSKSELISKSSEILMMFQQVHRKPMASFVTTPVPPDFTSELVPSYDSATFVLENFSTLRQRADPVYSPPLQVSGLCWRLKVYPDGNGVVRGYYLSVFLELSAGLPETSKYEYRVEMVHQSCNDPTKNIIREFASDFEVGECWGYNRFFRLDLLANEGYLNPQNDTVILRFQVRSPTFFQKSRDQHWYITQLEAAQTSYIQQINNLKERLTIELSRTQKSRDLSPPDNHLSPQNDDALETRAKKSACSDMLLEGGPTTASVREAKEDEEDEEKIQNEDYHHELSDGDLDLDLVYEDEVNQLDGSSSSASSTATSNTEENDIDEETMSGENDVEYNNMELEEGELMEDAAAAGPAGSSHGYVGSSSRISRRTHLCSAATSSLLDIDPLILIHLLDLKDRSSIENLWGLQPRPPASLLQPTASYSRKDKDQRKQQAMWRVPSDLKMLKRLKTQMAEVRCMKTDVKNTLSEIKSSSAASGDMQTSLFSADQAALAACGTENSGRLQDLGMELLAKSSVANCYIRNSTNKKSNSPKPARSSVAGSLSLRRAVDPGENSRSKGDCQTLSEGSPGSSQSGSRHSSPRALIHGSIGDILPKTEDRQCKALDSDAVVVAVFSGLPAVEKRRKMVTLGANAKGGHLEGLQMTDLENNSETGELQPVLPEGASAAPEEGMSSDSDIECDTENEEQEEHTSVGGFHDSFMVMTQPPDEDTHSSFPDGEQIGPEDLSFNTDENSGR
T6 sequence (Q12899 whole entry, change not shown): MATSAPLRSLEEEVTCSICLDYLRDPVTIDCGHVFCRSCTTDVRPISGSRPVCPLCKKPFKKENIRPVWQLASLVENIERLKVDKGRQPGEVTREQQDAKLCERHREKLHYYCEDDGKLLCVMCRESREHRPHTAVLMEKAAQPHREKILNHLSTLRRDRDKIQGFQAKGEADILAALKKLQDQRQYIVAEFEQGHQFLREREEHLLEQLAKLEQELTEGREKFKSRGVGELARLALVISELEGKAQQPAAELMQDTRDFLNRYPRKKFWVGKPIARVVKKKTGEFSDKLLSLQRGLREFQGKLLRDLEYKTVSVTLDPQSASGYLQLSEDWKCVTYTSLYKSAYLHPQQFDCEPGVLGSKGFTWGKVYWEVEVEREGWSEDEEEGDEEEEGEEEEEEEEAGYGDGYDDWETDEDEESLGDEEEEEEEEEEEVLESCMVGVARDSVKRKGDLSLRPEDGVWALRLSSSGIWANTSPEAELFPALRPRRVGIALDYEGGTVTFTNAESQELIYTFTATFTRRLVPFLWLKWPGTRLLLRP

Structure (SMILES) | inhibition at 100 µM (UniProt Q86UD3; [1]) [%] | inhibition at 500 µM (UniProt Q86UD3; [2]) [%] | inhibition at 100 µM (UniProt Q7Z6J0) [%] | inhibition at 100 µM (UniProt Q9NX47; read-out: percent inhibition) [%] | percent_inhibition (UniProt Q7Z6J0; 100 uM) [%] | inhibition at 100 µM (UniProt P46934; [1]) [%] | inhibition at 500 µM (UniProt P46934; [2]) [%] | inhibition at 100 µM (UniProt O94972; [3]) [%] | inhibition at 100 µM (UniProt Q12899; [3]) [%] | percent inhibition (UniProt Q86UD3; 500 uM) [%] | percent inhibition (UniProt P46934; 100 uM) [%] | percent inhibition (UniProt P46934; 500 uM) [%] | percent inhibition (UniProt Q9NX47; 100 uM) [%] | KB03_100 uM_percent_inhibition (UniProt O94972; 100 uM) [%] | KB03_100 uM_percent_inhibition (UniProt Q12899; 100 uM) [%]
COc1ccc2c(c1)CCCN2C(=O)CCl [KB02] | 34 | 77 | 42 | 7 | – | – | – | – | – | – | – | – | – | – | –
C=CC(=O)N(c1ccccc1)c1ccc(Br)cc1 [KB05] | – | – | 3 | – | 4 | 52 | 53 | 18 | 28 | – | – | – | – | – | –
O=C(CCl)Nc1cc(C(F)(F)F)cc(C(F)(F)F)c1 [KBO3] | – | – | – | – | – | – | – | – | – | 66 | 71 | 76 | 30 | 36 | 56

Source: patent US20200239530A1, “COMPOUNDS AND METHODS OF MODULATING PROTEIN DEGRADATION” (Vividion Therapeutics, Inc., priority 2017, published 2020)
